This is an account of results in US20160279187A1, “CALPAIN INHIBITORS FOR IBD AND COLORECTAL CANCER TREATMENT” (UNIVERSITY OF HAWAII, priority 2013, published 2016).

Assay [1] has as its system calpain activity in the colon tissue. Nature of the assay: DSS dose-response, calpain activity in colon tissue. The assay is classed as in vivo, mice. The following applies: 2% DSS 4 days. The procedure: Bone marrow derived macrophages (BMDM) were prepared as previously described by methods known to those skilled in the art. On day 5 of culture, 2×10^6 BMDM were seeded in 6-well plates and the following day were primed for 18 h with TNFα (20 ng/mL), followed by 1 h stimulation with E. faecalis (1 μg/mL; ATCC). Stimulation with E. faecalis was conducted in the presence of the zLLY-CH2F calpain-2 inhibitor (20 μg/mL) or DMSO as a control. Media was removed from treated BMDM, centrifuged at 300×g for 5 min and supernatent analyzed using the Cytometric Bead Array Mouse Inflammation Kit (BD Biosciences, San Jose, Calif.). Cytokine data were analyzed using Flowjo software (Ashland, Oreg.) and GraphPad Prism version 4.0 (GraphPad, La Jolla, Calif.). Cell pellets were lysed and analyzed for IκB and NFκB by Western blot as previously described (Miyazaki, T. et al. Journal of Atherosclerosis and Thrombosis 20, 228-237, 2013). […] Each day 4 wells were quantified using Celltiter MTS reagent (Promega) and the resulting signal was used to generate a proliferation curve. Calpain activity was measured using a Calpain activity assay kit (BioVision, Inc., Milpitas, Calif.) as previously described. Colons were harvested on day 4 and calpain activity measured. […]

In assay [2] the test system is AOM/DSS induced colitis/CAC. Nature of the assay: AOM/DSS induced colitis/CAC model. The assay is classed as in vivo, C57BL/6J mice. The following applies: for CAC pathology (blinded 4-point histological score) / total tumor volume (in words): day 63, vs vehicle control. The procedure:
A mice colony generated from C57BL/6J mice (Jackson Laboratories) was maintained in the University of Hawaii vivarium. The mouse AOM/DSS induced colitis/CAC model was adapted from a previously described protocol (Fenouille, N. et al. J. Pathol. 227, 118-129, 2012). In brief, 8-10 wk old male mice were injected with AOM (A5486, Sigma) (12 mg/kg) on day 0 and were then treated with three 5 day cycles of 2% DSS (CAS#9011-18-1; MP Biomedicals, Santa Ana, Calif.) in drinking water alternated with regular water over 63 days. Mice in the intervention group were interperitonal injected 5 days per week with 0.75 mg/kg calpain-2 inhibitor (Calpain Inhibitor IV, zLLY-CH2F; Millipore EMD part number 208724) beginning on day 8 and then throughout the entire protocol. Control mice were injected with AOM on day 0 and received regular drinking water throughout the protocol. All animal protocols were approved by the University of Hawaii Institutional Animal Care and Use Committee.
Bone marrow derived macrophages (BMDM) were prepared as previously described by methods known to those skilled in the art. On day 5 of culture, 2×10^6 BMDM were seeded in 6-well plates and the following day were primed for 18 h with TNFα (20 ng/mL), followed by 1 h stimulation with E. faecalis (1 μg/mL; ATCC). Stimulation with E. faecalis was conducted in the presence of the zLLY-CH2F calpain-2 inhibitor (20 μg/mL) or DMSO as a control. Media was removed from treated BMDM, centrifuged at 300×g for 5 min and supernatent analyzed using the Cytometric Bead Array Mouse Inflammation Kit (BD Biosciences, San Jose, Calif.). Cytokine data were analyzed using Flowjo software (Ashland, Oreg.) and GraphPad Prism version 4.0 (GraphPad, La Jolla, Calif.). Cell pellets were lysed and analyzed for IκB and NFκB by Western blot as previously described (Miyazaki, T. et al. Journal of Atherosclerosis and Thrombosis 20, 228-237, 2013). In other experiments, mouse CT-26.WT and human HT-29 colon cancer cells were plated in 96-well plates at 10^3 cells/well with 20 μg/mL inhibitor or DMSO, followed by analyses for IκB and NFκB by Western blot as described above for BMDM. For proliferation assays, fresh media with 20 μg/mL inhibitor or DMSO were added every 2 d. Each day 4 wells were quantified using Celltiter MTS reagent (Promega) and the resulting signal was used to generate a proliferation curve. Calpain activity was measured using a Calpain activity assay kit (BioVision, Inc., Milpitas, Calif.) as previously described. Colons were harvested on day 4 and calpain activity measured. Enzyme-linked immunosorbant assay (ELISA) analyses of cecum hemoglobin has been previously described (Miyazaki, T. et al. Journal of Atherosclerosis and Thrombosis 20, 228-237, 2013).
On day 63, colons were dissected, cut longitudinally, and then were spread out on clear plastic. The colons were washed with PBS using transfer pipettes and images captured using an Infinity 2 microscope mounted camera (Lumenara, Madrid, Spain) in line with a Stemi 2000-C dissecting scope (Zeiss, Jena, Germany). Separate images were assembled into continuous colon images using Photoshop software (Adobe Systems Inc.). For histology, colon tissues were washed with PBS and fixed in 10% buffered formalin. Standard H&E staining of paraffin-embedded tissue samples was conducted as previously described (Leloup, L. & Wells, A., Expert Opinion on Therapeutic Targets 15, 309-323, 2011). Five H&E stained sections from each mouse were blindly scored for colitis pathology as previously described (Liu, T., Mendes, D. E. & Berkman, C. E. Int. J. Oncol. 44, 467-472, 2014). […]

In assay [3] the test system is cytokine mRNAs in colon tissues. Nature of the assay: AOM/DSS model, colon cytokine mRNA by real-time PCR. In kind it is in vivo, mice. The following applies: day 63, vs vehicle control. The procedure: Mice subjected to the AOM/DSS model were sacrificed on day 63 and colons removed and assessed by histology and cytokine mRNA analyses. […] To further assess inflammation, mouse colon tissues were harvested at the end of the chronic colitis model and mRNA levels for different cytokines measured by real-time PCR.
To determine if a similar mechanism may be contributing to the effect of the calpain-2 inhibition in the DSS model of colitis, macrophages were analyzed for NFκB activation and inflammatory cytokine secretion. Bone marrow derived macrophages were primed […] with TNFα (20 ng/ml) and activated with E. faecalis (1 μg/ml) for 1 h in the presence or absence of calpain-2 inhibitor (20 μg/ml). Supernatants were evaluated for a panel of cytokines including IFNγ, TNFα, IL-6, and MCP-1, IL-10, and IL-12. Real-time PCR was performed on total RNA extracted from colon tissues to access levels of cytokines. Media was collected from wells and cytokines assessed by CBA kit (BD Biosciences). For IκB blotting cells were lysed and SDS-PAGE was performed. Membranes were stained with anti-IκB (Cell Signalling) and anti-βactin (Santa Cruz). For NfκB blotting an NFκB Activation Kit (Five Photon) was used to isolate nuclear fractions. These fractions were transferred using SDS-PAGE. The membranes were stained with anti-NFκB (Santa Cruz) or anti-TATA (Abcam). Data are mean±SE (n=3) and represent results from three independent experiments. *p<0.05; one way ANOVA followed by Tukey post-test. […] Importantly, those cytokines most affected by the calpain-2 are regulated by NFκB.

Assay [4] relates to IκB / NFκB in CT-26 WT cells. Nature of the assay: IκB and nuclear NFκB western blot, CT-26.WT. In kind it is cell-based, mouse. The following applies: vs DMSO. (In general: Immunoblotting shows a protein as a band on a membrane.)
The test system of assay [5] is Akt phosphorylation / FAK cleavage in colon cancer cells. Nature of the assay: other m-calpain regulated pathways in colon cancer cells (Akt, FAK). The assay is classed as cell-based.
Another assay addresses cathespin L (Homo sapiens, UniProt P07711). The following applies: off-target protein; Li et al., Biochemistry 2006; cited from earlier work.

Where a SMILES comes first, the peptide text is derived from it. The star is where a group is joined. Cbz = O=C(OCc1ccccc1)*; CH2F = FC*

Sequence of cathespin L (P07711 114-333): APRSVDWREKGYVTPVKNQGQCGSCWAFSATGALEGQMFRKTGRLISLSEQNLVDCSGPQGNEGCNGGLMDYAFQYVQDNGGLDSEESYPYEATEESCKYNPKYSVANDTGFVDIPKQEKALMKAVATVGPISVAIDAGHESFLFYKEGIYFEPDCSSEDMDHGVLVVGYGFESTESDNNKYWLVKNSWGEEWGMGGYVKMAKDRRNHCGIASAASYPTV

As for `CC(C)C[C@H](NC(=O)OCc1ccccc1)C(=O)N[C@@H](CC(C)C)C(=O)N[C@@H](Cc1ccc(O)cc1)C(=O)CF` [zLLY-CH2F, Z-LLY-CH2F] (Cbz-Leu-Leu-Tyr-CH2F), the “total calpain activity reduced by” value in assay [1] (daily i.p. injection, 0.75 mg/kg) amounted to 50%. For the same molecule, the “dose at which the maximum amount of calpain activity inhibition was achieved” value in assay [1] (i.p., 0-1.25 mg/kg tested) is 0.75 mg/kg. For the same molecule, the “weight recovery after each administration of DSS” value in assay [2] (0.75 mg/kg i.p. from day 8, vs vehicle control) is “significant increase”. Moreover, in assay [2] (day 63), the “average number of tumors/mouse” value is listed as 2 tumors/mouse. Besides, in assay [2] (day 63, 0.75 mg/kg i.p., vs vehicle control), the “hemoglobin in cecums by ELISA (bloody diarrhea)” value is given as “significantly lower”. Moreover, in assay [2] (day 63, i.p. 5 days on/2 days off from day 8, vs vehicle control), the “total tumor volume reduced by” value is on record as 70%. Moreover, in assay [2], the “CAC pathology (blinded 4-point histological score)” value is on record as “significantly lower” and the “total tumor volume (in words)” value is given as “significantly lower”. Moreover, in assay [2] (listed as calpain-2 inhibitor), the “CAC pathology (blinded 4-point histological score)” value is recorded as “significantly alleviated” and the “total tumor volume (in words)” value is reported as “significant reduction”. Moreover, the “total tumor volume (in words)” value in assay [2] (listed as m-calpain inhibitor) is reported as “very significant tumor reduction”. In addition, in assay [2] (day 63 colon, vs vehicle control), the “colitis pathology and inflammatory infiltration (histology)” value was “significant decrease”. Moreover, in assay [3], the “IFNγ mRNA level in colon” value is recorded as “not significantly different”, the “IL-6 mRNA level in colon” value is “lowered”, the “MCP-1 mRNA level in colon” value was “lowered” and the “TNFα mRNA level in colon” value is reported as “lowered”. Further, in assay [4], the IκB degradation result was “reduced” and the NFκB nuclear localization entry is reported as “reduced”. In assay [5], the FAK cleavage entry was “not apparent” and the “phosphorylation of Akt” value is “inhibited”. For the same molecule, the “rate constant k2, inhibition of cathespin L” value at cathespin L is given as 680,000 M^−1s^−1.
